Measurements from article PMC6479601, “Salicylate and Procyanidin-Rich Stem Extracts of Gaultheria procumbens L. Inhibit Pro-Inflammatory Enzymes and Suppress Pro-Inflammatory and Pro-Oxidant Functions of Human Neutrophils Ex Vivo” (International Journal of Molecular Sciences, 2019).

Tests used:
LOX (lipoxygenase) = target: T1, LOX (lipoxygenase); assay: lipoxygenase inhibition assay (Matczak et al.); assay type: biochemical; conditions: eight-point curve; read-out: LOX / IC50 (mg GAE/mL; mM) ^b
T1 construct: gene LOX1.1
Text: lipoxygenase inhibition assay (Matczak et al.) on LOX (lipoxygenase)

HYAL (hyaluronidase) = target: T2, HYAL (hyaluronidase); assay: hyaluronidase inhibition assay (Matczak et al.); assay type: biochemical; conditions: eight-point curve; read-out: HYAL / IC50 (μg GAE/mL; μM) ^b
T2 construct: gene SPAM1
Text: hyaluronidase inhibition assay (Matczak et al.) on HYAL (hyaluronidase)

IC50 (LOX (lipoxygenase)) [mM] | IC50 (HYAL (hyaluronidase)) [µM] | Structure (SMILES)
0.3 ± 0.02 | 36.1 ± 2.68 | C[C@@H]1C[C@H]2[C@@H]3CCC4=CC(=O)C=C[C@]4(C)[C@@]3(F)[C@@H](O)C[C@]2(C)[C@@]1(O)C(=O)CO [DEX]
0.26 ± 0.01 | 35.7 ± 5.34 | COc1ccc2c(c1)c(CC(=O)O)c(C)n2C(=O)c1ccc(Cl)cc1 [IND]
0.29 ± 0.03 | 37.4 ± 1.78 | Oc1cc(O)c2c(c1)O[C@H](c1ccc(O)c(O)c1)[C@H](O)[C@H]2c1c(O)cc(O)c2c1O[C@H](c1ccc(O)c(O)c1)[C@H](O)C2 [PB2]
1.26 ± 0.04 | 64 ± 2.87 | COC(=O)c1ccccc1O[C@@H]1O[C@H](CO[C@@H]2OC[C@@H](O)[C@H](O)[C@H]2O)[C@@H](O)[C@H](O)[C@H]1O [compound 18, methyl salicylate 2-O-(6′-O-β-D-xylopyranosyl)-β-D-glucopyranoside]
0.3 ± 0.02 | 102 ± 6.09 | O=c1c(O)c(-c2ccc(O)c(O)c2)oc2cc(O)cc(O)c12 [compound 39, QU]
